Biological target: T1, E. coli Histidine Triad Nucleotide Binding Protein 1 (ecHinT) (Escherichia coli, UniProt P0ACE7)
T1 construct: gene hinT
Assay: spectrophotometric phosphoramidase assay
Type: biochemical

T1 sequence (P0ACE7 whole entry): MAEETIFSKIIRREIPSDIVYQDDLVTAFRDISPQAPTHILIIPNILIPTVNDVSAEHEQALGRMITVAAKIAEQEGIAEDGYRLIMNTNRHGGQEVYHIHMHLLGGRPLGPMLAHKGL

Nc1nc2c(ncn2[C@@H]2O[C@H](COC(=O)NCCc3c[nH]c4ccccc34)[C@@H](O)[C@H]2O)c(=O)[nH]1 [TpGc, 5′-O-[(3-indolyl)-1-ethyl]carbamoyl guanosine]
Ki: 42 µM

Reference: publication PMC3130732, “E. coli Histidine Triad Nucleotide Binding Protein 1 (ecHinT) Is a Catalytic Regulator of D-Alanine Dehydrogenase (DadA) Activity In Vivo” (PLoS ONE, 2011)
